We go through one molecule from patent US12193994B2, “Combination of a cell therapy and a gamma secretase inhibitor” (Juno Therapeutics, Inc., priority 2017, dated 2025).

The subject of assay [1] is anti-BCMA CAR+ T cells. The assay can be described thus: Anti-BCMA CAR+ T cells incubated with BCMA-containing beads +/- LY3039478 (Luminex). It is filed as cell-based, human. As to conditions: different concentrations. On the procedure: Various parameters indicative of T cell function were assessed following incubation of anti-BCMA CAR+ T cells with BCMA-containing beads in the presence of different concentrations of the gamma secretase inhibitor, LY3039478, or vehicle (DMSO). Supernatant was harvested after 24 hours and production of TNF-alpha, IFN-gamma and IL-2 were measured using a Luminex Multiplex Assay.

Assay [2] concerns OPM2 or RPMI-8226 target cells. The assay can be described thus: Cytolytic activity of anti-BCMA CAR-T cells co-cultured with target cells +/- LY3039478 (IncuCyte). It is filed as cell-based, human. An excerpt: In this study, to generate anti-BCMA CAR-expressing T cells, CD4+ and CD8+ T cells were isolated by immunoaffinity-based enrichment from leukapheresis samples from two healthy donor subjects and one myeloma patient. Isolated T cells were activated and transduced with a viral vector encoding an anti-BCMA CAR. The CAR contained an scFv antigen-binding domain specific for BCMA having a VH domain and a VL domain with amino acid sequences set forth in SEQ ID NOS: 24 and 25, respectively, a spacer, a spacer having an amino acid sequence set forth in SEQ ID NO:31, a CD28 transmembrane region, a 4-1BB costimulatory signaling region and a CD3-zeta derived intracellular signaling domain. The nucleic acid construct encoding the CAR also included a truncated receptor sequence for use as a transduction marker, separated from the CAR sequence by a self-cleaving T2A sequence.
(§1) Anti-BCMA CAR-T cells generated as described in this Example above were cultured at 37° C. with either OPM2 or RPMI-8226 target cells at an effector to target (E:T) ratio of 0.3:1. The target cells were labeled with NucLight Red (NLR), to permit tracking of target cells by microscopy. Cultures were incubated in the absence of LY3039478 or in the presence of LY3039478 at concentrations of 0.1 nM, 1 nM, 10 nM, 100 nM, 1000 nM, 10000 nM or 100000 nM (the range covering the estimated human pharmacokinetic range is shown by the boxes in FIGS. 3A-3D). As a control, target cells were incubated with LY3039478 but without culture with CAR-T cells. Cytolytic activity was assessed by measuring the loss of viable target cells after about 150 hours, as determined by red fluorescent signal (using the IncuCyte® Live Cell Analysis System, Essen Bioscience). The area under the curve for killing observed during the culture period (˜150 hours) was determined. Percent lysis (% killing) was determined by normalizing the AUC for killing to cultures incubated without the inhibitor.

Assay [3] concerns OPM2 target cells. The assay can be described thus: Similar study: concentration dependence of anti-BCMA CAR-T cytolytic function. The class given is cell-based. As to conditions: Homo sapiens, OPM-2; OPM2, one exemplary donor; read-out: increasing anti-BCMA CAR-T killing of BCMA-expressing target cells, IC50. On the procedure: as §1
A similar study was carried out to further assess the effects of different concentrations of LY3039478, including concentrations within the estimated Cmax/Cmin for the inhibitor, on the cytolytic function of anti-BCMA CAR-T cells against OPM2 target cells.

In assay [4] the test system is multiple myeloma tumor. The assay can be described thus: BCMA expression on tumors after oral LY3039478 in an alternative multiple myeloma tumor cell model. The class given is in vivo, mice. The following applies: 0.1 mg/kg or 1 mg/kg, two oral administrations. Here is the method: Specifically, NOD.Cg.PrkdescidIL2rgtm1 Wjl/SzJ (NSG) mice were injected subcutaneously (s.c.) with 1E+07 RPMI-8226 cells modified to express GFP and firefly luciferase (RPMI-8226 ffluc) and tumors were allowed to grow. […]
FIG. 6 depicts analysis of blood samples, taken at 0, 0.5, 2, 6, 18, 24, 36, and 48 hour post-administration, for plasma levels of the drug. […] Tumor cells at 2 hours, 24 hours or 48 hours after administration of LY3039478 or vehicle control in the study were assessed for surface expression of BCMA.

The subject of assay [5] is RPMI-8226, OPM2, or MM1.S. The assay can be described thus: Re-challenge of chronically stimulated anti-BCMA CAR+ T cells with target cells +/- LY3039478. It is filed as cell-based, human. Here is the method: The effect of a gamma secretase inhibitor compound, LY3039478, on the cytotoxicity of anti-BCMA CAR+ T cells after long-term CAR-specific stimulation was assessed. Anti-BCMA CAR+ T cell compositions, generated as described in Example 2 containing anti-BCMA CAR-expressing CD4+ and CD8+ T cells, were incubated with 50 μg/mL BCMA-Fc conjugated beads for 7 days, under conditions designed to functionally exhaust the CAR T cells.
The CAR-T cells then were re-challenged with antigen-expressing target cells in the presence or absence of LY3039478. […] To assess cytolytic activity, the target cells were labeled with NucLight Red (NLR) to permit tracking by fluorescent microscopy. Killing activity was assessed by measuring the loss of viable target cells over time, as determined by loss of fluorescent signal over time by kinetic fluorescence microscopy (using the INCUCYTE® Live Cell Analysis System, Essen Bioscience). Target fluorescence was monitored over time and was normalized to target cell count.
A killing index was determined as the inverse of the area under the curve (AUC) for target fluorescence over time, and was normalized relative to DMSO vehicle control. […]

Assay [6] has as its system BCMA on the surface of multiple myeloma cells. The assay can be described thus: BCMA surface expression on multiple myeloma cells in patients given oral LY3039478. The class given is in vivo, human. As to conditions: mean, three 25 mg oral doses. On the procedure: Three human subjects having multiple myeloma were administered three 25 mg doses of the gamma secretase inhibitor (GSI) LY3039478 by mouth. The absolute B cell maturation antigen (BCMA) antibody binding capacity (ABC) on the surface of multiple myeloma cells was quantitated by flow cytometry performed on bone marrow aspirate specimens obtained from each of the patients prior to administration of the GSI, and immediately after the third oral GSI dose. A mean 66-fold increase in BCMA ABC was observed following GSI administration (FIG. 15A).

One may read the IC50 as the concentration that inhibits the measured activity by half. As for `C[C@H](NC(=O)CCC(F)(F)F)C(=O)N[C@@H]1C(=O)N(CCO)c2ncccc2-c2ccccc21` [LY3039478, 4,4,4-trifluoro-N-[(1S)-2-[[(7S)-5-(2-hydroxyethyl)-6-oxo-7H-pyrido[2,3-d][3]benzazepin-7-yl]amino]-1-methyl-2-oxo-ethyl]butanamide], in assay [1], the “CAR+ T cell count” value was “did not impact” and the viability result is “did not impact”. Besides, the “cytokine production (TNF-alpha, IFN-gamma and IL-2)” value in assay [1] (24 hours) is “did not impact”. The “cytolytic activity of anti-BCMA CAR T cells (% killing)” value in assay [2] (0.1 nM to 100000 nM, E:T 0.3:1, about 150 hours, myeloma patient-derived CAR-T, OPM2 and RPMI-8226) was “increased the cytolytic activity”. Besides, the “detrimental effects on CAR T cell function” value in assay [2] (100 μM LY3039478) is “No detrimental effects”. For the same molecule, the CAR-T function entry in assay [2] (CAR-T cells derived from the other donors) is recorded as “increase in CAR-T function”. Moreover, the target survival result in assay [2] (LY3039478 alone without CAR-T cells) is reported as “No differences”. The concentration for half-maximal inhibition (IC50) in assay [3] is 0.1 to 0.25 nM. In addition, the “BCMA expression on tumors” value in assay [4] was “Increased BCMA expression”. Also, in assay [5] (1 μM LY3039478, 24 hours, E:T 0.3:1 and 1:1), the “function of chronically stimulated anti-BCMA CAR-expressing T cells to produce cytokines (TNF-alpha, IFN-gamma, IL-2)” value is given as “improved function”. For the same molecule, the “cytolytic activity of chronically stimulated anti-BCMA CAR+ T cells” value in assay [5] (1 μM LY3039478 vs DMSO, E:T 0.3:1) is given as “improved cytolytic activity”. The “increase in BCMA antibody binding capacity (ABC) following GSI administration” value in assay [6] (three subjects, bone marrow aspirate) came to 66 fold. In addition, the “percentage of plasma cells with measurable surface BCMA expression following the three oral doses” value in assay [6] (35% (mean) before GSI) was 98.4%.
